Results as given in patent US9290455B2, “CDDO-Me amino acid conjugates and methods of use” (Trustees of Dartmouth College, priority 2014, dated 2016).

System: reactive oxygen species
Test: Reactive oxygen species in tBHP-challenged RAW cells (H2DCFA, flow cytometry)
Type: cell-based
Details: 100 nM for 18 hours, 250 μM tBHP for 15 minutes
Protocol: RAW264.7 cells were incubated with 10 and 100 nM of the synthetic triterpenoids for 18 hours, H2DCFA was then added for 30 minutes and the cells were challenged with 250 μM of tert-butyl hydroperoxide for 15 minutes to induce ROS. Mean fluorescence intensity of 50,000 cells was detected by flow cytometry. The results were obtained from three independent experiments.
The antioxidative activity of these compounds was explored as well. This experiment was based on the deacetylation and then oxidation of the non-fluorescent reagent 2′,7′-dichlorodihydrofluorescein diacetate (H2DCFA) to a fluorescent derivative. To study the effects of the TPs on oxidative stress, RAW cells were treated with 10-100 nM of the TPs for 18 hours. Cells were then incubated with 10 μM H2DCFA for […] and challenged with 250 μM of tert-butyl hydroperoxide (tBHP) for 15 minutes. The mean fluorescence intensity was measured by flow cytometry, using a 480 nm excitation wavelength and a 525 nm emission wavelength.

SMILES: COC(=O)[C@]12CCC(C)(C)C[C@H]1[C@H]1C(=O)C=C3[C@@]4(C)C=C(C#N)C(=O)C(C)(C)[C@@H]4CC[C@@]3(C)[C@]1(C)CC2 [CDDO-Me, bardoxolone methyl]
- protection against ROS at 100 nM compared with 10 nM: slightly better
